Reference: ChEMBL document CHEMBL1135073, “Solution and solid-phase synthesis of potent inhibitors of hepatitis C virus NS3 proteinase” (Bioorg Med Chem Lett, 2002)
*1 amine or outer side, *2 acyl side, *3 side chain or, on linkers, in order; H or OH if unused. Where a SMILES comes first, the peptide text is derived from it. [ ]: non-standard residue; d: D form. The star is where a group is joined. Nleψ(COCO) = CCCC[C@H](N[*:1])C(=O)C(=O)[*:2]; Acetyl(2-naphthyl) = O=C(Cc1ccc2ccccc2c1)*; NH(1S-phenylpropyl) = CC[C@H](N*)c1ccccc1; Phe(2-Me) = Cc1ccccc1C[C@H](N)C(=O)O; NleCONH2 = CCCC[C@H](N*)C(=O)C(N)=O; 3Thi = N[C@@H](Cc1ccsc1)C(=O)O; Phg = N[C@H](C(=O)O)c1ccccc1; Suc = O=C(CCC(=O)[*:2])[*:1]; Tle = CC(C)(C)[C@H](N)C(=O)O; Bn = c1ccc(C*)cc1

target: NS3 (Hepatitis C virus, UniProt A3EZJ3); assay: Inhibitory concentration against Hepatitis C virus NS3 proteinase; parameters: species or system Hepacivirus hominis
Sequence (A3EZJ3 whole entry): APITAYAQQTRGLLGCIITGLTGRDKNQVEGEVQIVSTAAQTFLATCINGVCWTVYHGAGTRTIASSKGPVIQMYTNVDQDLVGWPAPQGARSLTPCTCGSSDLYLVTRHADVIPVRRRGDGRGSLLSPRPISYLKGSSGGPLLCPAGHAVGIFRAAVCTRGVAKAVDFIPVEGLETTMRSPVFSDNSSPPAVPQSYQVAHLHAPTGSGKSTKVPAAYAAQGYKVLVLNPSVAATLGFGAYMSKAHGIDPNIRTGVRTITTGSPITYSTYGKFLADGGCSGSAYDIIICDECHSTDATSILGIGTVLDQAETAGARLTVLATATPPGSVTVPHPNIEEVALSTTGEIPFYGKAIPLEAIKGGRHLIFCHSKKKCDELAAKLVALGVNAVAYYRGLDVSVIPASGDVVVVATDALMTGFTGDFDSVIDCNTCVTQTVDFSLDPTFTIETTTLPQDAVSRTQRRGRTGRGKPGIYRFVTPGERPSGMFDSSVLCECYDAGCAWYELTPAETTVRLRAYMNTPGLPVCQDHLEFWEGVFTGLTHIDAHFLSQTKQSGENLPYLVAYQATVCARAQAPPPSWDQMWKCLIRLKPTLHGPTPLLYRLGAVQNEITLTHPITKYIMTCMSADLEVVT

| IC50 | SMILES |
| --- | --- |
| 110 nM | CCCC[C@H](NC(=O)[C@H](CC(C)C)NC(=O)[C@@H](NC(=O)[C@H](Cc1ccc(OCc2ccccc2)cc1)NC(=O)[C@H](CCC(=O)O)NC(=O)[C@H](CC(=O)O)NC(=O)CCC(=O)O)C(C)(C)C)C(=O)C(N)=O (Suc-DEY(Bn)[Tle]L-NleCONH2) |
| 42 nM | CCCC[C@H](NC(=O)[C@H](CC(C)C)NC(=O)[C@@H](NC(=O)[C@H](Cc1ccccc1C)NC(=O)[C@H](CCC(=O)O)NC(=O)[C@H](CC(=O)O)NC(=O)CCC(=O)O)c1ccccc1)C(=O)C(N)=O (Suc-DE[Phe(2-Me)][Phg]L-NleCONH2) |
| 20 nM | CCCC[C@H](NC(=O)[C@H](CC(C)C)NC(=O)[C@@H](NC(=O)[C@H](Cc1ccccc1C)NC(=O)[C@@H](NC(=O)[C@H](CC(=O)O)NC(=O)CCC(=O)O)C(C)C)C(C)(C)C)C(=O)C(N)=O (Suc-DV[Phe(2-Me)][Tle]L-NleCONH2) |
| 29 nM | CCCC[C@H](NC(=O)[C@H](CC(C)C)NC(=O)[C@@H](NC(=O)[C@H](Cc1ccccc1C)NC(=O)[C@H](COCc1ccccc1)NC(=O)[C@H](CC(=O)O)NC(=O)CCC(=O)O)C(C)(C)C)C(=O)C(N)=O (Suc-DS(Bn)[Phe(2-Me)][Tle]L-NleCONH2) |
| 130 nM | CCCC[C@H](NC(=O)[C@H](Cc1ccsc1)NC(=O)[C@@H](NC(=O)[C@H](Cc1ccccc1C)NC(=O)[C@H](CCC(=O)O)NC(=O)[C@H](CC(=O)O)NC(=O)CCC(=O)O)C(C)(C)C)C(=O)C(N)=O (Suc-DE[Phe(2-Me)][Tle][3Thi]-NleCONH2) |
| 11 nM | CCCC[C@H](NC(=O)[C@H](CC(C)C)NC(=O)[C@@H](NC(=O)[C@H](Cc1ccccc1C)NC(=O)[C@H](CCC(=O)O)NC(=O)[C@H](CC(=O)O)NC(=O)CCC(=O)O)C(C)(C)C)C(=O)C(=O)N[C@@H](CC)c1ccccc1 (Suc-DE[Phe(2-Me)][Tle]L[Nleψ(COCO)]-{NH(1S-phenylpropyl)}) |
| 90 nM | CCCC[C@H](NC(=O)[C@H](CC(C)C)NC(=O)[C@@H](NC(=O)[C@H](Cc1ccccc1C)NC(=O)[C@H](CCC(=O)O)NC(=O)[C@H](CC(=O)O)NC(=O)Cc1ccc2ccccc2c1)C(C)(C)C)C(=O)C(N)=O ({Acetyl(2-naphthyl)}-DE[Phe(2-Me)][Tle]L-NleCONH2) |
| 41 nM | CCCC[C@H](NC(=O)[C@H](CC(C)C)NC(=O)[C@@H](NC(=O)[C@H](Cc1ccccc1C)NC(=O)[C@H](CCC(=O)O)NC(=O)[C@H](Cc1c[nH]c2ccccc12)NC(=O)CCC(=O)O)C(C)(C)C)C(=O)C(N)=O (Suc-WE[Phe(2-Me)][Tle]L-NleCONH2) |
